US4719048A, “Crysene compound” (Burroughs Wellcome Co., priority 1984, dated 1988)
Structures can show the parent of a compound that is named as a salt.

Key:
[1] = tested on: P388/0 tumor cells (lymphocytic leukemia); assay: Lymphocytic Leukemia P388/0 Test (survival of tumor-bearing mice); assay type: in vivo, mouse (CD2-F1); settings: ip, days 1, 5, 9; at optimal dose (mg/kg): 1B 121; 1C 115; 2 100; 3 100; 6G 65; 18B 88; 19H 110; 6H 60; 7 110; 9 300; 10B 1013; 11C 150; 12G 90; 5F 225; 13D 303; 14 196; 15B 250; 16 1012; 4B 180; active if ≥120%
Excerpt: (§1) Methods for evaluating the antitumor activity of these compounds are essentially those used in the Tumor Panel by the Developmental Therapeutics Program, Division of Cancer Treatment, National Cancer Institute, A. Goldin, et al., Methods in Cancer Research, Vol. XVI, p. 165, Academic Press (1979). Some modifications, in dose level and schedule have been made to increase the testing efficiency.
(§2) CD2-F1 mice, of the same sex, weighing 20±3 g, are used for this test. Control and test animals are injected intraperitoneally with a suspension of ~10^6 viable P388/0 tumor cells on day 0. In each test, several dose levels which bracket the LD20 of the compound are evaluated; each dose level group contains six animals. The test compounds are prepared either in physiologic saline containing 0.05% Tween 80 or distilled water containing 5% dextrose and are administered intraperitoneally on days 1, 5, and 9 relative to tumor implant. Doses are on a mg/kg basis according to individual animals' body weights. The day of death for each animal is recorded, the median identified for each group and the ratios of median survival time for treated (T)/control (C) groups are calculated. The criterion for activity is T/C×100≥120%.

B16 melanoma cells = assay: Melanotic Melanoma B16 test (survival); assay type: in vivo, mouse (B6C3-F1); settings: B16 ip; drug ip days 1, 5, 9; dose (mg/kg): 1C 100; 6G 50; 3 70; 2 75; 18B 70; active if >125%
Excerpt: as §1
B6C3-F1 mice of the same sex, weighing 20±3 g, are used for this test. A suspension of B16 cells is prepared from a non-necrotic portion of solid tumor tissue obtained from a passage mouse. One gram of tumor is homogenized in 9 mL ice-cold Earle's salts solution and filtered through 1000 mesh screen to remove debris. 0.5 mL of the resulting brei is injected intraperitoneally into each animal. Dosing is carried out as in the P388/0 and L1210 tests. Days of death are recorded for a 60 day period and T/C ratio calculated as in the P388/0 and L1210 tests. The criterion for activity is T/C×100>125%.

LD20 in the P388/0 test = assay type: in vivo, mouse (CD2-F1); settings: ip, days 1, 5 and 9
Experimental: as §2
^A Values in parentheses are the highest nontoxic dose where the
LD20 was not determined.

Colon 38 carcinoma = assay: Colon 38 Carcinoma Test (tumor weight); assay type: in vivo, mouse (tumor from C57B1/6); settings: ip, days 1, 5, 9; dose 120 mg/kg; day 20; active if ≤42%
Excerpt: as §1
This chemically-induced tumor arose in a C57B1/6 mouse and is maintained as a solid tumor in that mouse strain. The subcutaneously growing solid tumor is aseptically excised from passage mice and placed in sterile saline. The tumor is trimmed free of visible necrotic and connective tissue, then divided into 2-3 mm cubes. A cube is implanted subcutaneously in the ventral thoracic region with a sterile trochar on day 0. In each test several dose levels which bracket the LD20 for the compound are evaluated. Ten animals are included in each dose level group and thirty animals in the untreated control group. The test compounds are prepared either in physiologic saline containing 0.05% Tween 80 or distilled water containing 5% dextrose and are administered intraperitoneally on days 1, 5 and 9 after tumor implant. […] At day 20, the animals are sacrificed and the longest (L) and shortest (W) dimensions of each tumor measured with vernier calipers. Tumor weight is calculated from the formula [formula] […]

Structure (SMILES) | T/C × 100% (Excluding 30 Day Survivors), median survival time treated/control [1] | LD20 (LD20 in the P388/0 test) | other results
C[C@@H](O)C(C)(NCc1cc2c3ccccc3ccc2c2ccccc12)[C@@H](C)O (relative stereo) [Example 5F] | +255% | – | –
C[C@H](O)[C@@](C)(CO)NCc1cc2c3ccccc3ccc2c2ccccc12 (relative stereo) [Example 6G, (+-)(2R*,3S*)-2-((6-chrysenylmethyl)amino)-2-methyl-1,3-butanediol hydrochloride.1/3H2 O] | +245% | 53 mg/kg | T/C × 100% Excluding 60 day Survivors (B16 melanoma cells): +160%
CS(=O)(=O)O.C[C@H](O)[C@@](C)(CO)NCc1cc2c3ccccc3ccc2c2ccccc12 (relative stereo) [Example 6H, (+-)(2R*,3S*)-2-((6-chrysenylmethyl)amino)-2-methyl-1,3-butanediol methanesulfonate] | +235% | 60 mg/kg | –
C[C@@H](O)[C@@](C)(CO)NCc1cc2c3ccccc3ccc2c2ccccc12.Cl (relative stereo) [Example 7, (+-)-(2R*,3R*)-2-((6-chrysenylmethyl)amino)-2-methyl-1,3-butanediol hydrochloride] | +285% | 100 mg/kg | –
CC(CO)(CO)NCc1cc2c3ccccc3ccc2c2ccccc12.Cl [Example 1B, 2-((6-chrysenylmethyl)amino)-2-methyl-1,3-propanediol hydrochloride] | – | 140 mg/kg | –
CC(CO)(CO)NCc1cc2c3ccccc3ccc2c2ccccc12 [Example 1C, 2-((6-chrysenylmethyl)amino)-2-methyl-1,3-propanediol methanesulfonate] | – | – | T/C × 100% (tumor weight) (Colon 38 carcinoma): 36%
Cl.OCC(CO)(CO)NCc1cc2c3ccccc3ccc2c2ccccc12 [Example 2, 2-((6-chrysenylmethyl)amino)-2-hydroxymethyl-1,3-propanediol hydrochloride] | – | 100 mg/kg | –
CCC(CO)(CO)NCc1cc2c3ccccc3ccc2c2ccccc12.Cl [Example 3, 2-((6-chrysenylmethyl)amino)-2-ethyl-1,3-propanediol hydrochloride] | – | 100 mg/kg | –
CC(CO)(CO)NCc1cc2c3ccccc3c(Cl)cc2c2ccccc12 [Example 4B, 2-(((12-chloro-6-chrysenyl)methyl)amino)-2-methyl-1,3-propanediol methanesulfonate.1/3H2 O] | +155% | 180 mg/kg | –
COCC(C)(CO)NCc1cc2c3ccccc3ccc2c2ccccc12.Cl (stereo not drawn) [Example 9D, 3-methoxy-2-((6-chrysenylmethyl)amino)-2-methyl-1-propanol hydrochloride] | +181% | – | –
O[C@@H]1CCC[C@H](O)[C@H]1NCc1cc2c3ccccc3ccc2c2ccccc12 [Example 10B, (1α,2β,3α)-2-((6-chrysenylmethyl)amino)-1,3-cyclohexanediol hydrochloride] | +205% | – | –
CC(C)C(CO)(CO)NCc1cc2c3ccccc3ccc2c2ccccc12 [Example 11C, 2-((6-chrysenylmethyl)amino)-2-isopropyl-1,3-propanediol hydrochloride.H2 O] | – | 150 mg/kg | –
CC(CO)(CCO)NCc1cc2c3ccccc3ccc2c2ccccc12 (stereo not drawn) [Example 12G, 2-((6-chrysenylmethyl)amino)-2-methyl-1,4-butanediol hydrochloride.1/3EtOH] | – | 90 mg/kg | –
CS(=O)(=O)O.C[C@H](O)C(NCc1cc2c3ccccc3ccc2c2ccccc12)[C@@H](C)O (stereo partly drawn) [Example 13D, meso-3-((6-chrysenylmethyl)amino)-2,4-pentanediol methanesulfonate] | +200% | – | –
OCC(CO)NCc1cc2c3ccccc3ccc2c2ccccc12 [Example 14, 2-((6-chrysenylmethyl)amino)-1,3-propanediol methanesulfonate] | – | 160 mg/kg | –
CCc1cc2c3ccccc3c(CNC(C)(CO)CO)cc2c2ccccc12 [Example 15B, 2-(((12-ethyl-6-chrysenyl)methyl)amino)-2-methyl-1,3-propanediol methanesulfonate] | – | 150 mg/kg | –
CC(=O)OCC(C)(COC(C)=O)NCc1cc2c3ccccc3ccc2c2ccccc12 [Example 16, 2-((6-chrysenylmethyl)amino)-2-methyl-1,3-propanediol diacetate] | +145% | – | –
CC(C)(CO)NCc1cc2c3ccccc3ccc2c2ccccc12.Cl [Example 18B, 2-((6-chrysenylmethyl)amino)-2-methyl-1-propanol hydrochloride] | – | 80 mg/kg | –
CC(CO)(CO)NCc1ccc2ccc3c4ccccc4ccc3c2c1 [Example 19H, 2-((3-chrysenylmethyl)amino)-2-methyl-1,3-propanediol methanesulfonate] | – | 150 mg/kg | –
